# Results from patent US4376858A, “2-4-Diamino-5-methyl-6-[(3,4,5-trimethoxyanilino)methyl]quinazoline salts” (Warner Lambert Company, priority 1982, dated 1983).
# Structures can show the parent of a compound that is named as a salt.
# Legend:
# [1] = Solubility of prepared 2,4-diamino-5-methyl-6-[(3,4,5-trimethoxyanilino)methyl]quinazoline salts in water; assay type: physicochemical; conditions: Table II, Method B: saturated 5.0 ml H2O overnight, filtrate diluted with 0.01 N HCl, 1440 min
# [2] = as above; assay type: physicochemical; conditions: for Solubility in water: Table II, Method A: saturated 2.0 ml H2O overnight, filtrate diluted with methanol, 1440 min; for Filtrate pH / Solubility: Table III, Prepared Salt; for water solubility (in words): qualitative conclusion from Tables I and II
# Protocol: Method A: Saturated 2.0 ml H2 O overnight, 0.5 ml of filtrate diluted to 10.0 ml with methanol, added 1 drop of 6 N KOH to UV cell.
# [3] = Solubility of the base 2,4-diamino-5-methyl-6-[(3,4,5-trimethoxyanilino)methyl]quinazoline in aqueous acids (shake-out); assay type: physicochemical; conditions: for Base Solubility in acid soln.: Table I; for Solubility / Filtrate pH: Table III
# malaria = conditions: reported in Great Britain Patent Specification No. 1,345,502; cited from earlier work
# bacteria = conditions: reported in Great Britain Patent Specification No. 1,345,502; cited from earlier work
# neoplasms = conditions: Biochemical Pharmacology 28, 1983-1987; Cancer Research 39, 293-304; cited from earlier work
# [4] = Stability and solid form of the salts; assay type: physicochemical; conditions: qualitative
# [5] = acid conc. .1 M, acid/base 2/1, * not saturated (isethionic, ethoxyacetic)
# [6] = 0.1 M acid per method (head: 1 M soln.), 0.05 M base, shaken 4-12 hours, UV 321 nm
# [7] = lines marked *: .05 M acid, 1/1 acid/base
# [8] = listed as 2,4-diamino-5-methyl-6-[(3,4,5-trimethoxyanilino)methyl]quinazoline glucuronate
# [9] = acid conc. .06 M, acid/base 1/1
smiles,measurement,setting,value
COc1cc(NCc2ccc3nc(N)nc(N)c3c2C)cc(OC)c1OC [3-Hydroxypropyl sulfonate],Solubility in water,[1],4.73 mg base/ml
COc1cc(NCc2ccc3nc(N)nc(N)c3c2C)cc(OC)c1OC [Acetate],Solubility in water,[2],1.72 mg base/ml
COc1cc(NCc2ccc3nc(N)nc(N)c3c2C)cc(OC)c1OC [Benzene sulfonate],Base Solubility in acid soln.,"[3]; lines marked *: .05 M acid, 1/1 acid/base, listed as Benzene sulfonic",1.89 mg base/ml
same,Base Solubility in acid soln.,"[3]; 0.1 M acid per method (head: 1 M soln.), 0.05 M base, shaken 4-12 hours, UV 321 nm, listed as Benzene sulfonic",7.17 mg base/ml
same,Solubility,"[3]; acid conc. .05 M, acid/base 1/1, * not saturated (isethionic), listed as Benzene sulfonic",1.89 mg base/ml
same,Filtrate pH,"[3]; acid conc. .05 M, acid/base 1/1, listed as Benzene sulfonic",2.95
same,Solubility,"[3]; acid conc. .1 M, acid/base 2/1, * not saturated (isethionic, ethoxyacetic), listed as Benzene sulfonic",7.17 mg base/ml
same,Filtrate pH,"[3]; acid conc. .1 M, acid/base 2/1, listed as Benzene sulfonic",2.95
same,Filtrate pH,[2]; listed as Benzene sulfonic,4.45
same,Solubility,[2]; listed as Benzene sulfonic,1.24 mg base/ml
same,Solubility in water,[1],1.24 mg base/ml
COc1cc(NCc2ccc3nc(N)nc(N)c3c2C)cc(OC)c1OC [Ethane sulfonate],Solubility in water,[1],2.64 mg base/ml
COc1cc(NCc2ccc3nc(N)nc(N)c3c2C)cc(OC)c1OC [Ethoxyacetate],Base Solubility in acid soln.,"[3]; lines marked *: .05 M acid, 1/1 acid/base, listed as Ethoxyacetic",19.7 mg base/ml
same,Base Solubility in acid soln.,"[3]; 0.1 M acid per method (head: 1 M soln.), 0.05 M base, shaken 4-12 hours, UV 321 nm, listed as Ethoxyacetic",19.5 mg base/ml
same,Solubility,"[3]; acid conc. .065 M, acid/base 1/1, * not saturated",19.7 mg base/ml
same,Solubility,[3]; [5],19.5 mg base/ml
same,Solubility,[2]; listed as Ethoxyacetic,6.3 mg base/ml
same,Solubility in water,[1],6.3 mg base/ml
"COc1cc(NCc2ccc3nc(N)nc(N)c3c2C)cc(OC)c1OC [Free base, 2,4-diamino-5-methyl-6-[(3,4,5-trimethoxyanilino)methyl]quinazoline]",Solubility in water,[2],0.2 mg base/ml
same,Solubility in water,[1],0.1 mg base/ml
same,antimalarial activity,malaria,exhibiting antimalarial and antibacterial activity
same,antibacterial activity,bacteria,exhibiting antimalarial and antibacterial activity
same,antineoplastic activity,neoplasms,exhibit antineoplastic activity
COc1cc(NCc2ccc3nc(N)nc(N)c3c2C)cc(OC)c1OC [Galacturonic],Base Solubility in acid soln.,[3]; [6],25.1 mg base/ml
same,solid form (in words),[4]; listed as galacturonate,undesirable amorphous form
COc1cc(NCc2ccc3nc(N)nc(N)c3c2C)cc(OC)c1OC [Gentisate],Solubility in water,[2],1.4-7.06 mg base/ml
same,Solubility in water,[1],0.28 mg base/ml
COc1cc(NCc2ccc3nc(N)nc(N)c3c2C)cc(OC)c1OC [Gluconatete],Solubility in water,[1],2.55 mg base/ml
COc1cc(NCc2ccc3nc(N)nc(N)c3c2C)cc(OC)c1OC [Gluconic],Base Solubility in acid soln.,[3]; [7],19.8 mg base/ml
same,solid form (in words),[4]; listed as gluconate,undesirable amorphous form
"COc1cc(NCc2ccc3nc(N)nc(N)c3c2C)cc(OC)c1OC [Glucuronate, 2,4-Diamino-5-methyl-6-[(3,4,5-trimethoxyanilino)methyl]quinazoline D-glucuronate]",Base Solubility in acid soln.,"[3]; 0.1 M acid per method (head: 1 M soln.), 0.05 M base, shaken 4-12 hours, UV 321 nm, listed as Glucuronic",34.35 mg base/ml
same,water solubility (in words),[2]; [8],higher degree of solubility
same,solid form (in words),[4]; [8],powdery rather than crystalline
same,Solubility in water,[1],109.4 mg base/ml
COc1cc(NCc2ccc3nc(N)nc(N)c3c2C)cc(OC)c1OC [Glycolic],Base Solubility in acid soln.,[3]; [7],4.73 mg base/ml
same,Base Solubility in acid soln.,[3]; [6],4.13 mg base/ml
same,Filtrate pH,"[3]; acid conc. .1 M, acid/base 1/1",3.28
same,Solubility,"[3]; acid conc. .1 M, acid/base 1/1",4.73 mg base/ml
same,Filtrate pH,"[3]; acid conc. .1 M, acid/base 2/1",3.00
same,Solubility,[3]; [5],4.13 mg base/ml
same,Filtrate pH,[2],5.30
same,Solubility,[2],2.55 mg base/ml
COc1cc(NCc2ccc3nc(N)nc(N)c3c2C)cc(OC)c1OC [Hydrochloride],Solubility in water,[2],3.22 mg base/ml
"COc1cc(NCc2ccc3nc(N)nc(N)c3c2C)cc(OC)c1OC [Isethionate, 2,4-Diamino-5-methyl-6-[(3,4,5-trimethoxyanilino)methyl]quinazoline monoisethionate]",Base Solubility in acid soln.,"[3]; lines marked *: .05 M acid, 1/1 acid/base, listed as Isethionic",17.3 mg base/ml
same,Base Solubility in acid soln.,"[3]; 0.1 M acid per method (head: 1 M soln.), 0.05 M base, shaken 4-12 hours, UV 321 nm, listed as Isethionic",16.3 mg base/ml
same,Solubility,"[3]; acid conc. .05 M, acid/base 1/1, * not saturated (isethionic)",17.34 mg base/ml
same,Filtrate pH,"[3]; acid conc. .05 M, acid/base 1/1, listed as Isethionic",3.70
same,Solubility,[3]; [5],16.33 mg base/ml
same,Filtrate pH,"[3]; acid conc. .1 M, acid/base 2/1, listed as Isethionic",1.83
same,Solubility in water,[2],23.93 mg base/ml
same,Filtrate pH,[2]; listed as Isethionic,5.30
same,Solubility,[2]; listed as Isethionic,24.8 mg base/ml
same,water solubility (in words),[2],highly water soluble
same,solid form (in words),[4],crystalline
same,stability (in words),[4],stable
same,Solubility in water,[1],24.78 mg base/ml
COc1cc(NCc2ccc3nc(N)nc(N)c3c2C)cc(OC)c1OC [Lactate],Solubility in water,[2],4.34 mg base/ml
COc1cc(NCc2ccc3nc(N)nc(N)c3c2C)cc(OC)c1OC [Methane sulfonic],Base Solubility in acid soln.,[3]; [7],6.49 mg base/ml
same,Base Solubility in acid soln.,[3]; [6],9.83 mg base/ml
same,Filtrate pH,[3]; [9],3.00
same,Solubility,[3]; [9],6.5 mg base/ml
same,Solubility,"[3]; acid conc. .1 M, acid/base 1/.9",8.74 mg base/ml
same,Filtrate pH,[2],5.32
same,Solubility,[2],4.9 mg base/ml
COc1cc(NCc2ccc3nc(N)nc(N)c3c2C)cc(OC)c1OC [N--(Morpholine)ethane-2-sulfonic],Base Solubility in acid soln.,[3]; [6],11.2 mg base/ml
COc1cc(NCc2ccc3nc(N)nc(N)c3c2C)cc(OC)c1OC [d-Tartaric],Base Solubility in acid soln.,[3]; [6],1.57 mg base/ml
COc1cc(NCc2ccc3nc(N)nc(N)c3c2C)cc(OC)c1OC [p-Toluene sulfonic],Base Solubility in acid soln.,[3]; [6],2.74 mg base/ml
